Values joined by “and” are separate entries in the source; they are usually repeats but may differ in a detail not shown here. Identical values can stand only once. “Also recorded” adds a separate entry of the source. Counter-ions that a name gives are not always drawn. Marks after values point to notes of the source that are not given here.
Columns and labels:
[1] = Embryo-fetal toxicity, intranasal racemic ketamine, pregnant rats; assay type: in vivo, rat; details: female, rat, in vivo, inhaled or intranasal; intranasal; period of organogenesis
Experimental: (§1) Racemic ketamine was administered intranasally to pregnant rats during the period of organogenesis at doses of 15, 50, and 150 mg/kg/day. The No Observed Adverse Effect level (NOAEL) for embryo-fetal toxicity in rats was the highest dose of 150 mg/kg/day. […] In pregnant rabbits, racemic ketamine was administered intranasally from gestational day 6 to 18 at doses of 10, 30, and 100 mg/kg/day. The high dose was lowered from 100 to 50 mg/kg after 5 days of dosing due to excessive mortality in the pregnant rabbits.

[2] = tested on: pregnant rats; assay: as above; assay type: in vivo, rat; details: estimating 50% of the exposure to be from esketamine
Experimental: as §1

[3] = tested on: pregnant rabbits; assay: Embryo-fetal reproduction study, intranasal ketamine, pregnant rabbits; assay type: in vivo, rabbit
Experimental: as §1

[4] = tested on: bone marrow; assay: In vivo bone marrow micronucleus test; design: species or system mice; details: intraperitoneally-injected
[5] = Single-dose neuronal toxicity study, subcutaneous racemic ketamine (label); assay type: in vivo, rat; details: rat, in vivo, sc; single subcutaneous dose; read-out: NOAEL for vacuolation
Experimental: (§2) In a single-dose neuronal toxicity study in adult rats, subcutaneously administered racemic ketamine caused neuronal vacuolation in layer I of the retrosplenial cortex of the brain without neuronal necrosis at a dose of 60 mg/kg. The NOAEL for vacuolation in this study was 15 mg/kg. […] The relevance of these findings to humans is unknown.

[6] = tested on: adult rats; assay: as above; assay type: in vivo, rat
Experimental: as §2

[7] = Ames test; details: with or without metabolic activation
[8] = tested on: adult female Sprague Dawley rats; details: 3 hours after a single intraperitoneal injection (Jevtovic-Todorovic 2000); cited from earlier work
[9] = tested on: mouse lymphoma; assay: In vitro mouse lymphoma test; details: in the presence of metabolic activation
[10] = tested on: female Sprague-Dawley rats; assay: Single dose neurotoxicity study: mortality, clinical observations, body weight; assay type: in vivo, rat; details: for Abnormal respiration, incidence / Abnormal respiration: audible respiration, incidence / Abnormal respiration: bradypnoea, incidence / Ataxia, incidence / Catalepsy, incidence / Chromodacryorrhea, incidence / Decreased general activity, incidence / Decubitus, incidence / Increased general activity, incidence / Narrowed palpebral fissure, incidence / Piloerection, incidence / Salivation (out of normal), incidence: single dose
Experimental: The injection volume was 5 mL/kg.
(§3) Body weight and body weight gain were measured daily.

[11] = tested on: female Sprague-Dawley rats; assay: 14-day repeated dose neurotoxicity study: mortality, clinical observations, body weight; assay type: in vivo, rat; details: 14 days
Experimental: as §3

[12] = Solubility of esketamine HCl
Experimental: The clinical investigational product is an aqueous solution of the drug substance, esketamine hydrochloride (HCl). This formulation is administered intranasally to patients using a dual nasal spray device, which delivers one spray into each nostril. […] The formulation was stored at 37° C. for stability reasons until dosing.

[13] = tested on: posterior cingulate gyrus (PCG) and retrosplenial cortex (RSC); assay: Single dose neurotoxicity study: brain histopathology (neuronal necrosis); details: single dose of 72 mg; 48 or 96 hours; hydrochloride
Experimental: In order to prepare for brain histopathology examination, all main study animals were perfused at necropsy. Prior to the perfusion, rats were anesthetized with isoflurane. After injection of 0.1 ml heparin, the blood of the rat was flushed out with a physiological saline solution by intraarterial insertion of a needle in the abdominal aorta. Thereafter the rat was perfused with glutaraldehyde 3% in potassium phosphate 0.09M and 1.4% sucrose.
The vehicle control, positive control, and esketamine HCl-dosed animals were sacrificed at either 48 hours (i.e., the first 12 or 15 rats per group) or 96 hours after the dose administration time (i.e., the last 12 or 15 rats per group). The brain tissue of the vehicle control-, positive control- and esketamine HCl-treated rats were processed at the same time and handled in the same way in batches of 4 or 5 animals per group.
Brain tissue was sampled and processed routinely. The trimmed and embedded tissue was sectioned and stained with hematoxylin-eosin (HE). Histoprocessing and staining were carried out in three batches of 4 animals per group (each batch thus containing 4 animals from vehicle control-, positive control- and the three esketamine HCl-treated groups). In the single dose study duplicate brain sections were stained with Fluoro-Jade (FJ).
All tissues showing gross abnormalities were examined macroscopically. […]

[14] = tested on: posterior cingulate gyrus (PCG) and retrosplenial cortex (RSC); assay: 14-day repeated dose neurotoxicity study: brain histopathology (neuronal necrosis); details: up to 54 mg/day; 48 hours after the last instillation; hydrochloride
Experimental: The brain tissue of the vehicle control-, positive control- and esketamine HCl-treated rats were processed at the same time and handled in the same way in batches of 4 animals per group.
Brain tissue was sampled and processed routinely. The trimmed and embedded tissue was sectioned and stained with hematoxylin-eosin (HE). Histoprocessing and staining were carried out in three batches of 4 animals per group (each batch thus containing 4 animals from vehicle control-, positive control- and the three esketamine HCl-treated groups).
All tissues showing gross abnormalities were examined macroscopically. Histopathological examination was performed on 7 levels of brain tissue according to Bolon (2013. Toxicol. Pathol. 41(7), 1028-1048) from the vehicle control-, positive control-, and high dose esketamine HCl-treated groups in the single dose study, and in all groups in the repeated dose study.
The microscopic finding of neuronal necrosis in the PCG/RSC of the brain was graded unilaterally according to the number of necrotic neurons observed over the total length of the PCG/RSC structure visible in the tissue section (usually around 3-5 mm) utilizing the following criteria:

[15] = Pharmacokinetics of intranasal esketamine in healthy subjects (Example 9)
Experimental: Blood samples (4 mL each) for determination of esketamine and noresketamine plasma concentrations were collected into the appropriate collection tube (e.g., Vacutainer®) at timepoints 0.00, 0.12, 0.20, 0.37, 0.53, 0.67, 0.83, 1.00, 1.25, 1.50, 2.00, 3.00, 4.00, 6.00, 9.00, 12.00, 18.00, and 24.00 h. The total amount of blood to be drawn for clinical laboratory tests and PK evaluations is approximately 327 mL.
Plasma samples were analyzed for esketamine and noresketamine concentrations using the validated, specific and sensitive liquid chromatography coupled to tandem mass spectrometry (LC-MS/MS) achiral method of Example 8.
Serial PK blood samples (4 mL each) were collected for a 24-hour period from each subject (Periods 1, 2, and 3). […] Statistical Methods 1.6.4.1. Sample Size
The following key parameters of esketamine and noresketamine in plasma were calculated using noncompartmental methods and actual sampling times: Cmax, tmax, AUClast, AUC∞, t1/2,λ, and λz.

[16] = tested on: glutamate NMDA receptor; assay: Affinity for the NMDA receptor in vitro; assay type: binding
[17] = tested on: CYPs and UGTs
[18] = Clinical pharmacokinetics of esketamine (label)
[19] = tested on: MDD/TRD subjects; details: 52-week safety study in MDD/TRD subjects (Berman et al., 2011); cited from earlier work
[20] = estimating 50% of the exposure to be from esketamine
[21] = noresketamine in plasma after esketamine 28 mg intranasal (A), n = 13
[22] = noresketamine in plasma after esketamine 56 mg intranasal (B), n = 13
[23] = noresketamine in plasma after esketamine 56 mg intranasal (B), n = 14
[24] = noresketamine in plasma after esketamine 84 mg intranasal (C), n = 12
[25] = noresketamine in plasma after esketamine 84 mg intranasal (C), n = 13

CNC1(c2ccccc2Cl)CCCCC1=O (racemic) [ketamine]
NOAEL [1]: 150 mg/kg/day | Esketamine AUC at the NOAEL, multiple of AUC at the MRHD of 84 mg/day [2]: 12 times | Esketamine exposure (AUC) at the NOAEL for skeletal malformations, multiple of exposure at MRHD of 84 mg/day [3]: 0.3 times | Genotoxicity [4]: did not show genotoxic properties | NOAEL [5]: 15 mg/kg | NOAEL for neuronal necrosis, multiple of clinical exposure at the MRHD, AUC [6, 20]: 10 times | NOAEL for neuronal necrosis, multiple of clinical exposure at the MRHD, Cmax [6, 20]: 16 times | NOAEL for neuronal vacuolation, multiple of clinical exposure at the MRHD, AUC [6, 20]: 1.6 times | NOAEL for neuronal vacuolation, multiple of clinical exposure at the MRHD, Cmax [6, 20]: 4.5 times | Dose causing neuronal vacuolation in layer I of the retrosplenial cortex without neuronal necrosis ([6]; single subcutaneous dose): 60 mg/kg | Mutagenicity [7]: not mutagenic | ED50-value for the induction of neuronal vacuolation in the PCG/RSC [8]: 47.5 mg/kg body weight | Mutagenicity [9]: positive

CN[C@]1(c2ccccc2Cl)CCCCC1=O [esketamine HCl, (S)-2-(2-chlorophenyl)-2-(methylamino)cyclohexanone hydrochloride]
Abnormal respiration, incidence ([10]; 36 mg intranasal): 22/24 *** | Abnormal respiration: audible respiration, incidence ([10]; 36 mg intranasal): 10/24 *** | Abnormal respiration: bradypnoea, incidence ([10]; 36 mg intranasal): 22/24 *** | Ataxia, incidence ([10]; 36 mg intranasal): 24/24 *** | Catalepsy, incidence ([10]; 36 mg intranasal): 20/24 *** | Chromodacryorrhea, incidence ([10]; 36 mg intranasal): 0/24 | Decreased general activity, incidence ([10]; 36 mg intranasal): 23/24 *** | Decubitus, incidence ([10]; 36 mg intranasal): 23/24 *** | Increased general activity, incidence ([10]; 36 mg intranasal): 24/24 *** | Narrowed palpebral fissure, incidence ([10]; 36 mg intranasal): 7/24** | Piloerection, incidence ([10]; 36 mg intranasal): 0/24 | Salivation (out of normal), incidence ([10]; 36 mg intranasal): 23/24 *** | Duration of severely decreased activity with decubitus, bradypnea, ptosis and catalepsy (anesthesia) ([10]; 36 mg, after the last instillation): 15 to 30 min | Abnormal respiration, incidence ([10]; 54 mg intranasal): 22/24 *** | Abnormal respiration: audible respiration, incidence ([10]; 54 mg intranasal): 3/24 | Abnormal respiration: bradypnoea, incidence ([10]; 54 mg intranasal): 21/24 *** | Ataxia, incidence ([10]; 54 mg intranasal): 24/24 *** | Catalepsy, incidence ([10]; 54 mg intranasal): 23/24 *** | Chromodacryorrhea, incidence ([10]; 54 mg intranasal): 0/24 | Decreased general activity, incidence ([10]; 54 mg intranasal): 23/24 *** | Decubitus, incidence ([10]; 54 mg intranasal): 23/24 *** | Increased general activity, incidence ([10]; 54 mg intranasal): 24/24 *** | Narrowed palpebral fissure, incidence ([10]; 54 mg intranasal): 10/24 *** | Piloerection, incidence ([10]; 54 mg intranasal): 0/24 | Salivation (out of normal), incidence ([10]; 54 mg intranasal): 24/24 *** | Duration of ataxia after the decrease in activity had subsided ([10]; 54 mg, hydrochloride): 1.5 to 3 h and 1 to 3 h | Duration of ataxia after the decrease in activity had subsided ([10]; 72 mg): ≥ 3 h | Abnormal respiration, incidence ([10]; 72 mg intranasal): 30/30 *** | Abnormal respiration: audible respiration, incidence ([10]; 72 mg intranasal): 2/30 | Abnormal respiration: bradypnoea, incidence ([10]; 72 mg intranasal): 30/30 *** | Catalepsy, incidence ([10]; 72 mg intranasal): 30/30 *** | Chromodacryorrhea, incidence ([10]; 72 mg intranasal): 0/30 | Decreased general activity, incidence ([10]; 72 mg intranasal): 30/30 *** | Decubitus, incidence ([10]; 72 mg intranasal): 30/30 *** | Increased general activity, incidence ([10]; 72 mg intranasal): 29/30 *** | Narrowed palpebral fissure, incidence ([10]; 72 mg intranasal): 22/30 *** | Piloerection, incidence ([10]; 72 mg intranasal): 0/30 | Salivation (out of normal), incidence ([10]; 72 mg intranasal): 29/30 *** | Abnormal respiration, incidence ([11]; 18 mg/day intranasal): 2/12 | Abnormal respiration: audible respiration, incidence ([11]; 18 mg/day intranasal): 2/12 | Abnormal respiration: bradypnoea, incidence ([11]; 18 mg/day intranasal): 0/12 | Ataxia, incidence ([11]; 18 mg/day intranasal): 12/12*** | Chromodacryorrhea, incidence ([11]; 18 mg/day intranasal): 0/12 | Decreased general activity, incidence ([11]; 18 mg/day intranasal): 5/12 | Decubitus, incidence ([11]; 18 mg/day intranasal): 0/12 | Increased general activity, incidence ([11]; 18 mg/day intranasal): 12/12*** | Salivation (out of normal), incidence ([11]; 18 mg/day intranasal): 12/12*** | Abnormal respiration, incidence ([11]; 36 mg/day intranasal): 11/12*** | Abnormal respiration: audible respiration, incidence ([11]; 36 mg/day intranasal): 6/12** | Abnormal respiration: bradypnoea, incidence ([11]; 36 mg/day intranasal): 11/12*** | Ataxia, incidence ([11]; 36 mg/day intranasal): 12/12*** | Chromodacryorrhea, incidence ([11]; 36 mg/day intranasal): 0/12 | Decreased general activity, incidence ([11]; 36 mg/day intranasal): 12/12*** | Decubitus, incidence ([11]; 36 mg/day intranasal): 2/12 | Increased general activity, incidence ([11]; 36 mg/day intranasal): 12/12*** | Salivation (out of normal), incidence ([11]; 36 mg/day intranasal): 12/12*** | Abnormal respiration, incidence ([11]; 54 mg/day intranasal): 12/12*** | Abnormal respiration: audible respiration, incidence ([11]; 54 mg/day intranasal): 6/12** | Abnormal respiration: bradypnoea, incidence ([11]; 54 mg/day intranasal): 12/12*** | Ataxia, incidence ([11]; 54 mg/day intranasal): 12/12*** | Chromodacryorrhea, incidence ([11]; 54 mg/day intranasal): 0/12 | Decreased general activity, incidence ([11]; 54 mg/day intranasal): 12/12*** | Decubitus, incidence ([11]; 54 mg/day intranasal): 8/12*** | Increased general activity, incidence ([11]; 54 mg/day intranasal): 12/12*** | Salivation (out of normal), incidence ([11]; 54 mg/day intranasal): 12/12*** | Maximum solubility, as base ([12]; room temperature, pH 4.5, factor 1.15): 180 mg esketamine base/mL | Solubility ([12]; water, methanol, ethanol): freely soluble in water and in methanol, and soluble in ethanol | Histopathological lesions in the brain [13]: absent; also recorded: no neuropathological lesions | Histopathological lesions in the brain [14]: No histopathological lesions

N[C@]1(c2ccccc2Cl)CCCCC1=O [noresketamine]
AUC (AUClast and AUC∞) variability ([15]; noresketamine): 17.0% to 21.3 | Between-subject variability for Cmax ([15]; noresketamine): 25.8% to 33.7 | AUClast, mean [15, 21]: 454 ng·h/mL | AUC∞, mean [15, 21]: 508 ng·h/mL | Cmax, mean [15, 21]: 92.8 ng/mL | t1/2, mean [15, 21]: 7.74 h | tmax, median [15, 21]: 1.25 h | AUC∞, mean [15, 22]: 924^c h * ng/mL | t1/2, mean [15, 22]: 7.71^c h | AUClast, mean [15, 23]: 851 ng·h/mL | Cmax, mean [15, 23]: 154 ng/mL | tmax, median [15, 23]: 1.50 h | AUC∞, mean [15, 24]: 1392^b h * ng/mL | t1/2, mean [15, 24]: 7.48^b h | AUClast, mean [15, 25]: 1287 ng·h/mL | Cmax, mean [15, 25]: 241 ng/mL | tmax, median [15, 25]: 1.50 h | Metabolite/Parent Ratio, AUC∞ ([15]; noresketamine/esketamine, esketamine 28 mg intranasal (A), n = 12): 3.80^b | Activity at the NMDA receptor relative to esketamine [16]: less affinity | Inhibition of CYP3A4 [17]: weak reversible inhibition | Brain-to-plasma ratio, times lower than that of esketamine ([18]; human, in vivo): 4- to 6 times | Mean terminal t1/2 ([18]; noresketamine in plasma): approximately 8 hours

OCCOCCN1CCN(C2=Nc3ccccc3Sc3ccccc32)CC1 [quetiapine]
Discontinuation rate due to adverse events [19]: 23.7%

(+)MK-801 maleate [reference compound]
Mortality ([10]; single subcutaneous dose 1 mg/kg, single dose or repeated dose study): No mortality
